We go through two molecules from patent US12138140B2, “Wound covering for wound monitoring and therapeutic agent delivery” (UVic Industry Partnerships Inc., priority 2017, dated 2024).

Data set [1] deals with P. aeruginosa. In words: semi quantitative bacteria inhibition assay of drug-eluting scaffolds on agar plate. Particulars: 3 mg/ml dosage. In kind it is cell-based, Pseudomonas aeruginosa. The procedure: To examine the antibacterial effectiveness of the drug-eluting scaffolds, a semi quantitative bacteria inhibition assay was performed using P. aeruginosa. […] Scaffolds with no drugs and filter paper impregnated with the same amount of drugs were used as negative and positive controls, respectively. Gentamicin is widely used as an effective antibiotic agent against a wide range of Gram-negative and Gram-positive bacteria, including P. aeruginosa (25-27). […] The observed white ring around the scaffold within the inhibited zone was suspected to be infected by the bacteria. Therefore, we collected swab samples from three different zones near the scaffold (point 1), in the white region (point 2), and at the edge of the ring (point 3), then plated the samples overnight on another agar plate. […] The formation of the white ring around the scaffold can be attributed to the interaction of the phosphate ions in the agar and calcium ions that were releasing from the calcium alginate scaffolds.
Bacteria viability loss assay: Drug-eluting scaffolds were embedded in alginate patches as described previously; patches were then placed on top of a Tryptic soy agar (TSA, Sigma-Aldrich) plate on which Pseudomonas aeruginosa bacteria were spread and the effect of the antimicrobial was investigated after incubation at 37° C. for 18 hr.

A short description of data set [2]: antibacterial efficiency of UV-sterilized gentamicin versus drug not treated with UV. It is filed as cell-based. Conditions: UV 365 nm, 200 mW/cm^2. The text has this:
In a representative example, multifunctional dressings were made according to the embodiments described herein comprising an array of porous color-changing pH sensors (e.g., the sensing elements 14) and drug-eluting scaffolds (e.g., the therapeutic agent delivery elements 16), which were embedded within an alginate dressing (FIG. 16A). The array of porous sensors (each sensor was 12×12 mm in size) comprised three-dimensionally (3D)-printed color-changing alginate fibers that were loaded with mesoporous resin beads doped with a pH-responsive dye (FIGS. 16A-16G). Alginate is a naturally-derived polysaccharide that can be used as a dressing material for epidermal applications due to its biocompatibility, hemostatic properties, and non-adhesive characteristics that facilitate the removal of the dressing without trauma and pain (14-18). With reference to FIG. 6A and FIGS. 16B and 16C, to print the sensors, a microextruder 60 comprising two coaxial needles 62 and 64 (FIG. 16C and FIGS. 22A-22B) mounted on a 3D printer (e.g., a Prusa i3) was used. The porosity of the sensors was adjusted by changing the diameter of the fibers while keeping the spacing between fibers constant. Encapsulation of the beads within the hydrogel fibers prevented the beads from dispersing in the wound area while providing a biocompatible interface with the wound site. […]

The nature of data set [3]: dehydration test (weight loss over time). In kind it is physicochemical. Particulars: glycerol added to alginate. The procedure:
One of the main advantages of using hydrogels as a substrate for wound dressings is their ability to retain moisture at the wound site. However, hydrogels may be prone to rapid dehydration, which can compromise the integrity of the dressing and ultimately affect its functionality. Rapid dehydration of the hydrogels can pose a challenge for the clinical application of gel-based dressings. The dehydration rate of the dermal patch was evaluated by measuring its weight loss at 37° C. and it was observed that the alginate patch was completely dehydrated in less than 10 hr (FIG. 26A). Influential parameters on dehydration rates including alginate concentration and dressing thickness were altered for these experiments. […]
The effect of Mepitel® on the dehydration rate of the hydrogel dressing was studied. Dressings with 2% w/v alginate were covered by Mepitel® and their weight were measured in 24 hr. […]
Dehydration and hydration tests: Square gel sheets (15 mm×15 mm) made of two different concentrations of alginate (2% and 6% w/v) and two different thicknesses (1.5 mm and 3 mm) were fabricated by crosslinking with agarose sheets containing CaCl2 similar to preparation of the patches. […] The weight was then recorded during definite time intervals for 3 hours and the degree of swelling was then obtained by determining the gained weight for each sample.

Regarding gentamicin sulfate, in data set [1], the “effectiveness of topical delivery in the in vitro inhibition assay” value was “demonstrated the effectiveness”. Besides, the “impact of UV exposure on antibacterial efficiency of the drug” value in data set [2] is listed as “no impact”.
On to `OCC(O)CO` [glycerol], for which, in data set [3], the “reduction of dehydration rate” value is recorded as 30%.
